Like-named read-outs stand apart in the source and are kept apart here.
Legend:
[1] = test system: SHRSP/Ezo rats; test: Y-maze test (inattentive behavior); format: in vivo, rat
Description: (§1) In all the tests described herein, the R configuration (−) substance hydrochloride salt of the compound for use in the invention (hereinafter referred to as “BPAP” in some cases) as the test material and methylphenidate hydrochloride (SIGMA Aldrich) as the comparative drug were dissolved in saline, diluted to a volume of 2 ml/kg before administration, and systemically administered into six-week-old male SHRSP/Ezo rats 30 minutes before behavior tests. Note that BPAP was subcutaneously (s.c.) administered, and methylphenidate was subcutaneously (s.c.) or intraperitoneally (i.p.) administered after the confirmation that there was no difference between the two routes, i.e., the s.c. and i.p. administration.
The short-term working memory was evaluated as a spontaneous alternation behavior using a Y-maze (45 (length)×10 (width)×35 cm (height)). The spontaneous alternation is a behavior based on the habit of a rodent preferring to investigate a new arm of the maze rather than returning to one that was previously visited in the Y-maze. In order to select three different arms continuously, it is necessary to remember the previously visited arm. To achieve this, therefore, the short-term working memory is considered indispensable. Because the processes of the short-term working memory are closely related to an appropriate amount of attention toward achievement of the task, the short-term working memory implicates aspects of attention. Thus, the Y-maze test was carried out to evaluate the inattentive behavior in SHRSP/Ezo rats.
The spontaneous alternation was measured according to the method by Sarter et al. (Psychopharmacology (Berl), 94:491-5 (1988)) using the following procedure. Under a 200-lux illuminance condition, each rat was placed in the center of the crossing point of the three arms and allowed to enter the maze arm freely for eight-minute test session, and the sequence of arm entries was recorded. The alteration behavior was defined as the consecutive entry into three arms, i.e. the combination of three different arms, with stepwise combinations in the sequence. The percentage obtained by dividing the spontaneous alternation behavior by the total number of arm entries (total arm entries) minus 2 was determined as the spontaneous alternation behavior rate (alternation rate). For example, assuming that the rat has entered the arms A, B, and C of the Y-maze in the order of ACBABACBAB, the spontaneous alternation behavior is five (ACB, CBA, BAC, ACB, and CBA), the total number of arm entries is ten, and the spontaneous alternation behavior rate is 62.5%. To consider the influence of variations in spontaneous alternation behavior rate among groups during the baseline (drug-untreated) period on the drug efficacy evaluation, the first Y-maze test was carried out three days before the drug efficacy evaluation, and grouping was performed based on the result of spontaneous alternation behavior rates in the 1st Y-maze test.
(§2) Data were represented as the means±standard errors. Student's t-test was used for the statistics analysis, and a P value below 5% was considered statistically significant.

[2] = test system: ADHD model rats or normal rats; test: Locomotor activity in ADHD model rats or normal rats; format: in vivo, rat; details: high dose
[3] = test system: SHRSP/Ezo rats; test: Elevated-plus maze test (impulsivity); format: in vivo, rat
Description: as §1
The anxiety-related behavior was evaluated using an elevated plus maze (open arm: 50 (length)×10 cm (width), enclosed arm: 50 (length)×10 (width)×40 cm (height), height above the floor: 50 cm). The device is constituted by a wall-less open arm and a wall-surrounding enclosed arm crossing each other at right angles at a height of 50 cm above the floor. An animal staying in an open arm is exposed to anxiety in the elevated wall-less open state. […] The elevated-plus maze test reflects an equilibrium state between the approach behavior (curiosity) and the avoidance behavior driven by anxiety in an animal, and thus is generally used for the evaluation of the anxiety level of an animal.
In this experiment, under a 200-lux illuminance condition, a rat was placed in the center of the crossing point of two sets of arms and allowed to enter freely into the maze for a ten-minute test session. The total number of arm entries (total arm entries), the time spent in open arms and the rate of open arm entries were analyzed by a video tracking system for behavioral experiments (LimeLight Actimetrics).
as §2

[4] = test system: SHRSP/Ezo rats; test: Open field test (hyperactivity, inner zone spent time); format: in vivo, rat
Description: as §1
The spontaneous locomotor activity in a new environment was evaluated using an open-field apparatus (90 (width)×90 (depth)×40 cm (height), 81 squares).
In this experiment, under a 200-lux illuminance condition, rats were placed in the center of the open field and allowed to move freely in the field for a 60-minute test session, and the horizontal activities (crossings: the number of squares crossed) during the exploration was analyzed by a video tracking system for behavioral experiments (LimeLight Actimetrics, USA).
as §2
Since the spent time in the inner zones (nine compartments in the center) (inner zone spent time) in the open field test is used for the evaluation of the anxiety level, the spent times per time (sec/15 min) and per behavior (sec/count) corrected with the locomotor activity (total crossings) were analyzed as the secondary evaluation in the open field test (FIG. 3). […] SHRSP/Ezo rats show an increase in spent time in the inner zone at the habituated phase during which hyperactivity was observed, indicating a reduction in anxiety level at the habituated phase. […] However, 0.3 mg/kg of BPAP had no effect on the reduction in anxiety level at habituated phase.

[5] = test system: human monoamine transporters (DAT, NET, SERT); test: Affinity for human monoamine transporters; format: binding; details: for order of affinities for human monoamine transporters: highest first
[6] = test system: rats; test: Methamphetamine-seeking behavior in rats
[7] = human, in vivo; cited from earlier work
[8] = human, in vivo; cited from earlier work; remark: listed apart in the source
[9] = test system: ADHD model rats or normal rats; details: cited from earlier work; for locomotor activities: increasing doses
[10] = test system: human monoamine transporters (DAT, NET, SERT); details: highest first; Neuropsychopharmacology 27: 699-711 (2002); cited from earlier work
[11] = test system: ADHD patients; details: cited from earlier work
[12] = 1 mg/kg as comparative drug (FIG. 1)
[13] = 1 mg/kg as comparative drug (FIG. 2)

SMILES: CCCNC(CCC)Cc1cc2ccccc2o1 (single isomer, unassigned; (-)) [BPAP, (−)-1-(benzofuran-2-yl)-2-propylaminopentane]
- impaired alternation behavior ([1]; s.c., 0.03 mg/kg): no improvement action was observed
- total number of arm entries compared with the first trial (Y1) ([1]; s.c., 0.03 to 0.3 mg/kg): significantly decreased
- impaired alternation behavior ([1]; s.c., 0.1 to 0.3 mg/kg): significantly improved
- spontaneous locomotor activity [2]: increases
- rate of open arm entries ([3]; s.c., 0.1 mg/kg (P=0.08)): tendency to reduce
- spent time on the open arms per total number of arm entries ([3]; s.c., 0.1 mg/kg, secondary analysis): significantly reduced
- extension of the spent time on the open arms ([3]; s.c., 0.01 to 0.3 mg/kg): no effect
- locomotor activity at the exploration phase ([4]; s.c., 0.3 mg/kg): no action
- locomotor activity at the habituated phase ([4]; s.c., 0.3 mg/kg): no action
- reduction in anxiety level (inner zone spent time) at habituated phase ([4]; s.c., 0.3 mg/kg): no effect
- increase in behavior at the habituated phase ([4]; s.c., 0.01 to 0.1 mg/kg): significantly inhibited
- inner zone spent time at the habituated phase ([4]; s.c., 0.01 to 0.1 mg/kg): significantly reduced
- locomotor activity at the exploration phase ([4]; s.c., 0.01 to 0.1 mg/kg): without affecting
- relative affinity NET/DAT ([5]; compared with methylphenidate): substantially equal
- relative affinity for SERT (SERT/DAT) ([5]; compared with methylphenidate): higher
- order of affinities for human monoamine transporters [5]: DAT>NET>serotonin transporter (SERT)
- methamphetamine-seeking behavior ([6]; due to drug-associated cues and methamphetamine-priming): inhibition action
- induction of methamphetamine-seeking behavior (dependence liability) ([6]; effective dose): did not induce

SMILES: CNCC[C@@H](Oc1ccccc1C)c1ccccc1 [atomoxetine]
- dry mouth [7]: 13.8%
- headaches [7]: 10.5%
- abdominal pain [8]: 12.2%
- headache [8]: 22.3%
- locomotor activities during an exploration period [9]: decreases
- locomotor activities [9]: does not exhibit increases
- order of affinities for human monoamine transporters [10]: NET>SERT>DAT

SMILES: COC(=O)C(c1ccccc1)C1CCCCN1 (stereo not shown) [methylphenidate]
- reduction in spontaneous alternation behavior rate [1, 12]: recovered
- total number of arm entries [1, 12]: without increasing
- increase in the total number of arm entries ([1]; i.p., 1 mg/kg, dose validation): significant exaltation
- reduction in spontaneous alternation behavior rate ([1]; i.p., 1 mg/kg, dose validation): improved
- increase in the total number of arm entries ([1]; i.p., 0.01 and 0.1 mg/kg): no influence
- reduction in spontaneous alternation behavior rate ([1]; i.p., 0.01 to 1 mg/kg): dose-dependently improved
- extension of the spent time on the open arms ([3]; 1 mg/kg (FIG. 4)): did not improve
- increase in the rate of open arm entries ([3]; 1 mg/kg (FIG. 4)): did not improve
- increase in the total number of arm entries (hyperactivity) ([3]; 1 mg/kg (FIG. 4)): significant worsened
- extension of the open arm spent time ([3]; i.p., 0.01 to 1 mg/kg): no statistically significant change
- increase in the number of open arm entries ([3]; i.p., 0.01 to 1 mg/kg): no statistically significant change
- reduction in anxiety level (inner zone spent time) at the habituated phase ([4]; 1 mg/kg (FIG. 3)): no effect
- spent time in the inner zone at the exploration phase ([4]; 1 mg/kg (FIG. 3)): significantly increased
- hyperactivity during the exploration phase (0 to 15 minutes) [4, 13]: worsened
- hyperactivity during the habituated phase (15 to 60 minutes) [4, 13]: worsened
- hyperactivity (horizontal ambulatory) in open field test ([4]; i.p., 1 mg/kg): did not decreased
- hyperactivity (horizontal ambulatory) in open field test ([4]; i.p., 0.01 and 0.1 mg/kg): significantly decreased
- increase in spontaneous ambulatory in open field test ([4]; i.p., 3 and 30 mg/kg): exacerbated
- share of ADHD patients for whom the drug is ineffective [11]: approximately three out of ten
- order of affinities for human monoamine transporters [5]: DAT>NET>serotonin transporter (SERT)
- locomotor activities [9]: dose-dependent increases

From patent US9782383B2, “Prophylactic and therapeutic agent for attention-deficit/hyperactivity disorder” (FUJIMOTO CO., LTD., priority 2013, dated 2017)
